# In US9067928B2 (Genentech, Inc., priority 2008, dated 2015):
# pIC50: −log10 of the molar value.
# Target: T1, Bcl-xL (Homo sapiens, UniProt Q07817)
# T1 construct: made in house
# Test: Alpha Screen Bcl-xL binding assay, competition with Bim26-mer
# Conditions: values listed in the order of Table 1; read-out: Alphascreen results (IC50)
# Experimental: The measurement of competition of compounds of the invention with Bim26-mer for a Bcl-2 family protein binding site using an Alpha Screen Bcl-xL Binding Assay:
# The BH3 proteins ALPHASCREEN™ assay was used to identify active small molecules Bcl-2 family protein screen. e.g., Bcl-xL, hmMcl-1 screen. To determine an accurate estimation of the IC50, the compounds were routinely tested at starting concentrations, 100 μM and/or 1 μM and serially titrated 3 fold over 11 dilutions.
# The beads come in close proximity when the protein and the peptides interact. Donor beads contain a photosensitiser that converts oxygen to an excited form of O2 at an excitation of 680 nm. Energy is transformed from the singlet oxygen and reacts with chemiluminescers on the acceptor bead, resulting in light emission at 520-620 nm. […] With this information, the IC50 of each compound was calculated
# GST-Bcl-xL, GST-hmMcl-1 and biotinylated GST proteins were prepared in-house and were stored as stock solutions at −80° C. The biotinylated-Bak, and biotinylated-Bim peptides were purchased from Auspep and were stored as 500 μM stock solutions in 100% DMSO at −80° C. The ALPHASCREEN™ GST (Glutathione-S-Transferase) Detection Kit was obtained from Perkin Elmer Lifesciences (Cat #6760603R). The Proxiplates, white 384 well flat-Bottom plates were purchased from Interpath Services, Melbourne (Cat #784075). The seals to cover the plates were purchased from Proscience. Melbourne (Cat#784075). DMSO was purchased from AnalaR. The 384 deep well plates and the Polypropylene 50 μL, V bottom polypropylene compound plates were purchased from Matrical.
# Compounds of the invention were prepared as 10 mM stocks with 100% DMSO on the day prior to performing the assay. […] To achieve a final compound concentration of 1 μM, in a separate matrical plate, 28 μL of 100% DMSO and 2 μL of 10 mM compound was added to a well, mixed well. 2 μL of this solution was taken and added to 38 μL of 100% DMSO. 20 μL of this solution was added to the test matrical plate. Several control compounds were included in the test plates. For the control wells 15 μL 100% DMSO only was added to the appropriate wells of each plate. The compound plates were then serially diluted 2 fold using the MiniTrak. Once titrations were complete, the compound plate was immediately covered with a foil seal to prevent evaporation.
# The assay and bead buffers were prepared fresh. Each titrated compound plate was assayed in duplicate. The following volumes were sufficient to run 12 Proxiplates (4 assay plates run in duplicate in each of Bclxl, hmMcl and counter assays)
# Protein and Peptide Preparation; and Assay Performance • 1. The assay and bead buffers were used to prepare the acceptor and donor solutions. ALPHASCREEN™ beads are light sensitive and therefore prepared in a darkened room. 2.5 μL of beads were added per 1 mL of buffer. • 2. The volume of protein or peptide to add was calculated using the following formula:
# [formula] • C1=Final Concentration of protein/peptide • C2=Stock Concentration of protein/peptide • V1=Total Volume of Acceptor/Donor Solution • V2=Volume of stock protein/Peptide to add to Acceptor/Donor solution • 3. The assay components were prepared as separate Acceptor and Donor Solutions. The Acceptor Solution contained Acceptor heads and target protein, while the Donor Solution contained Donor beads and biotinylated peptide.
# • 4. After the solutions were prepared, they were left to incubate for 30 minutes at room temperature to allow the beads to bind to the protein and the peptide. • 5. 50 μL of Bcl-xL solution, 50 μL of hmMcl-1 solution and 50 µL of biotinylated-GST were added into separate deep wells on an assay plate. A control […]. Assay/Bead buffer was added separate well plates (no protein). • 6.
# T1 sequence (Q07817 whole entry, species assumed): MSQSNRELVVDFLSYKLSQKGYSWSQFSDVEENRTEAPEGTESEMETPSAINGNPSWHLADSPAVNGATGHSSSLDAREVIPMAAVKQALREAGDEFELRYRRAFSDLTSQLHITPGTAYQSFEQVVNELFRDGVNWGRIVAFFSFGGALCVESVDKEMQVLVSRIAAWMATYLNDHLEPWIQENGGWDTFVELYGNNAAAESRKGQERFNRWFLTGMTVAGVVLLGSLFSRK
row,Structure (SMILES),pIC50
1,CN1CCN(C(=O)Nc2nc3ccccc3s2)c2cc(-c3cccc(C(=O)O)n3)ccc21 [Example 3],5.27
2,CC(C)COc1ccc(-c2ccc3c(c2)N(C(=O)Nc2nc4ccccc4s2)CCC3)nc1C(=O)O [Example 4],5.84
3,"NC(=O)c1nc(-c2ccc3c(c2)N(C(=O)Nc2nc4ccccc4s2)CCC3)sc1Oc1ccc(F)cc1 [Example 70, 2-(1-(benzo[d]thiazol-2-ylcarbamoyl)-1,2,3,4-tetrahydroquinolin-7-yl)-5-{4-fluorophenoxy)thiazole-4-carboxamide]",5.00
4,"COc1ccc(Oc2sc(-c3ccc4c(c3)N(C(=O)Nc3nc5ccccc5s3)CCO4)nc2C(=O)O)cc1 [Example 69, 2-(4-(benzo[d]thiazol-2-ylcarbamoyl)-3,4-dihydro-2H-benzo[b][1,4]oxazin-6-yl)-5-(4-methoxyphenoxy)thiazole-4-carboxylic acid]",6.17
5,"CN(CCOc1ccccc1)c1sc(-c2ccc3c(c2)N(C(=O)Nc2nc4ccccc4s2)CCO3)nc1C(=O)O [Example 76, 2-(4-(benzo[d]thiazol-2-ylcarbamoyl)-3,4-dihydro-2H-benzo[b][1,4]oxazin-6-yl)-5-(methyl(2-phenoxyethyl)amino)thiazole-4-carboxylic acid]",6.41
6,"O=C(O)c1nc(-c2ccc3c(c2)N(C(=O)Nc2cc4ccccn4n2)CCO3)ccc1OCCCc1ccccc1 [Example 89, 3-(3-phenylpropoxy)-6-(4-(pyrazolo[1,5-a]pyridin-2-ylcarbamoyl)-3,4-dihydro-2H-benzo[b][1,4]oxazin-6-yl)picolinic acid]",6.63
7,"CC(C)(C)OC(=O)Nc1ccc(OCCCc2sc(-c3ccc4c(c3)N(C(=O)Nc3nc5ccccc5s3)CCC4)nc2C(=O)O)cc1 [Example 85, 2-(1-(benzo[d]thiazol-2-ylcarbamoyl)-1,2,3,4-tetrahydroquinolin-7-yl)-5-(3-(4-(tert-butoxycarbonylamino)phenoxy)propyl)thiazole-4-carboxylic acid]",9.30
8,"COc1ccc(-c2sc(-c3ccc4c(c3)N(C(=O)Nc3nc5ccc(F)cc5s3)CCC4)nc2C(=O)O)cc1 [Example 72, 2-(1-(6-fluorobenzo[d]thiazol-2-ylcarbamoyl)-1,2,3,4-tetrahydroquinolin-7-yl)-5-(4-methoxyphenyl)thiazole-4-carboxylic acid]",5.00
9,"Cc1ccc(-c2sc(-c3ccc4c(c3)N(C(=O)Nc3nc5ccccc5s3)CCO4)nc2C(=O)O)cc1 [Example 64, 2-(4-(benzo[d]thiazol-2-ylcarbamoyl)-3,4-dihydro-2H-benzo[b][1,4]oxazin-6-yl)-5-p-tolylthiazole-4-carboxylic acid]",6.51
10,"O=C(O)c1nc(-c2ccc3c(c2)N(C(=O)Nc2nc4ccccc4s2)CCC3)sc1Oc1ccc(F)cc1 [Example 65, 2-(1-(benzo[d]thiazol-2-ylcarbamoyl)-1,2,3,4-tetrahydroquinolin-7-yl)-5-(4-fluorophenoxy)thiazole-4-carboxylic acid]",6.64

# Now from value to compound:
row,pIC50,Structure (SMILES)
1,9.15,"Nc1cccc(OCCCc2sc(-c3ccc4c(c3)N(C(=O)Nc3nc5ccccc5s3)CCC4)nc2C(=O)O)c1 [Example 82, 5-(3-(3-aminophenoxy)propyl)-2-(1-(benzo[d]thiazol-2-ylcarbamoyl)-1,2,3,4-tetrahydroquinolin-7-yl)thiazole-4-carboxylic acid]"
2,9.22,"O=C(O)c1nc(-c2ccc3c(c2)N(C(=O)Nc2nc4ccccc4s2)CCC3)sc1CCCOc1ccccc1 [Example 78, 2-(1-(benzo[d]thiazol-2-ylcarbamoyl)-1,2,3,4-tetrahydroquinolin-7-yl)-5-(3-phenoxypropyl)thiazole-4-carboxylic acid]"
3,8.00,O=C(O)c1nc(-c2ccc3c(c2)N(C(=O)Nc2nc4ccccc4s2)CCC3)ccc1OCCCOc1cccc2cccnc12 [Example 46]
4,6.92,"O=C(O)c1nc(-c2ccc3c(c2)N(C(=O)Nc2nc4ccccc4s2)CCO3)sc1CCCCc1ccccc1 [Example 77, 2-(4-(benzo[d]thiazol-2-ylcarbamoyl)-3,4-dihydro-2H-benzo[b][1,4]oxazin-6-yl)-5-(4-phenylbutyl)thiazole-4-carboxylic acid]"
5,8.10,"O=C(O)c1nc(-c2ccc3c(c2)N(C(=O)Nc2nc4ccccc4s2)CCO3)sc1CCCSc1ccncc1 [Example 73, 2-(4-(benzo[d]thiazol-2-ylcarbamoyl)-3,4-dihydro-2H-benzo[b][1,4]oxazin-6-yl)-5-(3-(pyridin-4-ylthio)propyl)thiazole-4-carboxylic acid]"
6,7.40,"O=C(O)c1nc(-c2ccc3c(c2)N(C(=O)Nc2nc4ccccc4s2)CCC3)sc1Oc1ccc(-n2ncc3cncnc32)cc1 [Example 93, 5-(4-(1H-pyrazolo[3,4-d]pyrimidin-1-yl)phenoxy)-2-(1-(benzo[d]thiazol-2-ylcarbamoyl)-1,2,3,4-tetrahydroquinolin-7-yl)thiazole 4-carboxylic acid]"
7,8.30,Nc1cccc(OCc2cccc(-c3ccc(-c4ccc5c(c4)N(C(=O)Nc4nc6ccccc6s4)CCC5)nc3C(=O)O)c2)c1 [Example 41]
8,7.19,"O=C(O)c1nc(-c2ccc3c(c2)N(C(=O)Nc2nc4ccccc4s2)CCO3)ccc1OCCCc1ccccc1 [Example 88, 6-(4-(benzo[d]thiazol-2-ylcarbamoyl)-3,4-dihydro-2H-benzo[b][1,4]oxazin-6-yl)-3-(3-phenylpropoxy)picolinic acid]"
9,6.70,"COc1cccc(-c2sc(-c3ccc4c(c3)N(C(=O)Nc3nc5ccccc5s3)CCO4)nc2C(=O)O)c1 [Example 67, 2-(4-(benzo[d]thiazol-2-ylcarbamoyl)-3,4-dihydro-2H-benzo[b][1,4]oxazin-6-yl)-5-(3-methoxyphenyl)thiazole-4-carboxylic acid]"
10,8.30,"NCc1ccc(OCCCc2sc(-c3ccc4c(c3)N(C(=O)Nc3nc5ccccc5s3)CCO4)nc2C(=O)O)cc1 [Example 83, 5-(3-(4-(aminomethyl)phenoxy)propyl)-2-(4-(benzo[d]thiazol-2-ylcarbamoyl)-3,4-dihydro-2H-benzo[b][1,4]oxazin-6-yl)thiazole-4-carboxylic acid]"
11,6.85,"CS(=O)(=O)NC(=O)c1nc(-c2ccc3c(c2)N(C(=O)Nc2nc4ccccc4s2)CCO3)ccc1OCCCc1ccccc1 [Example 91, N-(benzo[d]thiazol-2-yl)-6-(6-(methylsulfonylcarbamoyl)-5-(3-phenylpropoxy)pyridin-2-yl)-2H-benzo[b][1,4]oxazin-4(3H)-carboxamide]"
12,8.70,O=C(O)c1nc(-c2ccc3c(c2)N(C(=O)Nc2nc4ccccc4s2)CCC3)ccc1OCCOc1ccccc1 [Example 19]
13,6.96,"COc1ccc(-c2sc(-c3ccc4c(c3)N(C(=O)Nc3nc5ccccc5s3)CCO4)nc2C(=O)O)cc1 [Example 66, 2-(4-(benzo[d]thiazol-2-ylcarbamoyl)-3,4-dihydro-2H-benzo[b][1,4]oxazin-6-yl)-5-(4-methoxyphenyl)thiazole-4-carboxylic acid]"
